Data on 2 compounds can be found in article PMC4698017 (Science (New York, N.Y.), 2015).

Experiment [1] addresses T1, Sestrin2 (FLAG-Sestrin2) (Homo sapiens, UniProt P58004, S190W).
T1 sequence (P58004 1-480 S190W): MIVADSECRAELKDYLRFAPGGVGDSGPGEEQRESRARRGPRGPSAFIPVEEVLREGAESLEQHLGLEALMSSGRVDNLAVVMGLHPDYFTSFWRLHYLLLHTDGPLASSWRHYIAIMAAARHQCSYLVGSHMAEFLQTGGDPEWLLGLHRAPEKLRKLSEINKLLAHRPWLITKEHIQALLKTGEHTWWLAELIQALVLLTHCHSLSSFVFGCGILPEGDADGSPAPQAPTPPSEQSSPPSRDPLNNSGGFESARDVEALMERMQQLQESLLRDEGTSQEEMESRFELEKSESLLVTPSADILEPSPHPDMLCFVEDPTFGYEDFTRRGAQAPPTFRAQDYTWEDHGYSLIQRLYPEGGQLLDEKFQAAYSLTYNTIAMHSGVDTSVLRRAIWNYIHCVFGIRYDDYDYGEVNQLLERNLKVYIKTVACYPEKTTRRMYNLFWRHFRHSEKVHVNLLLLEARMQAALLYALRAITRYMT
Briefly: [3H]Leucine binding, FLAG immunoprecipitate on beads. To be noted: labelled compound.

Experiment [2] has as its target T2, Sestrin2 (FLAG-Sestrin2) (Homo sapiens, UniProt P58004, L261A).
T2 sequence (P58004 1-480 L261A): T1 sequence (P58004 1-480 S190W) with W190S, L261A
Described as above. To be noted: labelled compound.

The target in experiment [3] is T3, His-MBP-Sestrin2 (bacterially-produced Sestrin2) (Homo sapiens, UniProt P58004).
T3 sequence (P58004 1-480): T1 sequence (P58004 1-480 S190W) with W190S
Nature of the experiment: thermal shift assay, Sypro orange. It counts as binding. To be noted: maximal shift.

The target in experiment [4] is T4, Sestrin2 (FLAG-Sestrin2) (Homo sapiens, UniProt P58004, E451A).
T4 sequence (P58004 1-480 E451A): T1 sequence (P58004 1-480 S190W) with W190S, E451A
Nature of the experiment: [3H]Leucine binding, FLAG immunoprecipitate on beads. To be noted: labelled compound.

A further experiment addresses T5, Sestrin1 (two isoforms) (Homo sapiens, UniProt Q9Y6P5).
T5 sequence (Q9Y6P5 1-492): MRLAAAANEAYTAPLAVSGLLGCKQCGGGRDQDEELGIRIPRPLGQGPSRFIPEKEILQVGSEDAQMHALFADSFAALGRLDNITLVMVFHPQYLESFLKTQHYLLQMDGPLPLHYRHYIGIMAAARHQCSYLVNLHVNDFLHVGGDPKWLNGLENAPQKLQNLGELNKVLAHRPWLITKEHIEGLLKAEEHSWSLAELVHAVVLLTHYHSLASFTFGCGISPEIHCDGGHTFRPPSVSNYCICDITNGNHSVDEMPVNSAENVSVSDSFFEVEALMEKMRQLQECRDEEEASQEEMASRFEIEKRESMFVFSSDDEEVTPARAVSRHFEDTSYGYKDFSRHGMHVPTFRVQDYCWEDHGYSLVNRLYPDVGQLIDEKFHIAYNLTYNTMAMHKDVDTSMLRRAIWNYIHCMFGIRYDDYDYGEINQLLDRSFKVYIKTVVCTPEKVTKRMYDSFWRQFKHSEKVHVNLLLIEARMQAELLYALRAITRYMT
The experiment is described as above. To be noted: labelled compound.

The next experiment addresses T6, Sestrin3 (Homo sapiens, UniProt P58005).
T6 sequence (P58005 1-492): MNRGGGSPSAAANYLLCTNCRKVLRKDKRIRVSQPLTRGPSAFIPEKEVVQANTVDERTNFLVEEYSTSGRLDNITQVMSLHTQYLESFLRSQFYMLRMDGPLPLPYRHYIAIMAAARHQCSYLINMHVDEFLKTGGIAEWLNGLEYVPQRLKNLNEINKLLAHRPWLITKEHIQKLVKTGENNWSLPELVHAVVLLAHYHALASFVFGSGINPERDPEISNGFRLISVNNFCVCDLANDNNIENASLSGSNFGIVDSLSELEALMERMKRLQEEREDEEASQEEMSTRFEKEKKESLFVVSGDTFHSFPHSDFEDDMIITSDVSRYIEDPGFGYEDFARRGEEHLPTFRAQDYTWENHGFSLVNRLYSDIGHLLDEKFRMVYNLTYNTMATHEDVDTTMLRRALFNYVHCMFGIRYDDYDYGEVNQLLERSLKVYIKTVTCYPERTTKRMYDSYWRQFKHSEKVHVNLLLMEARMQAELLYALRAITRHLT
The experiment is described as above. The note with it: labelled compound.

For the next experiment, the target named is Sestrin2-GATOR2 complex (Homo sapiens, UniProt P58004). Briefly: disruption of immunopurified Sestrin2-GATOR2 complex, immunoblot. The note with it: 300 µM amino acid. Type of experiment: binding. Background: A western blot detects proteins with antibodies after separation by electrophoresis.

Changes are numbered by the printed parent chain.

Chain of Sestrin2-GATOR2 complex (P58004 whole entry): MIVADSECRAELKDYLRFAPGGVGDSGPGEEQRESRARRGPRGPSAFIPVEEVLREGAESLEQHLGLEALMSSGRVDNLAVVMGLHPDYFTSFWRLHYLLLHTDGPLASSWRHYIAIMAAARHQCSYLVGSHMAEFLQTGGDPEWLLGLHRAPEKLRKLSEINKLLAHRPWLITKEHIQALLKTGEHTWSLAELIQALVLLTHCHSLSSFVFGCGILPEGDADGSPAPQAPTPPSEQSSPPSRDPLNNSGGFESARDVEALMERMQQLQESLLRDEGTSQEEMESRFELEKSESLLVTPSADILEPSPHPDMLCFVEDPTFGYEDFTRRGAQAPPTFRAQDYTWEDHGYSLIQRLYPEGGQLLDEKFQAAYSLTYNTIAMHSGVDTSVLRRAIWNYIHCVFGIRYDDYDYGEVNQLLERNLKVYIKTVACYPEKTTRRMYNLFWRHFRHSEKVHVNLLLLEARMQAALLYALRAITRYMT
Chain of Sestrin2-GATOR2 complex (Q96S15 whole entry partner): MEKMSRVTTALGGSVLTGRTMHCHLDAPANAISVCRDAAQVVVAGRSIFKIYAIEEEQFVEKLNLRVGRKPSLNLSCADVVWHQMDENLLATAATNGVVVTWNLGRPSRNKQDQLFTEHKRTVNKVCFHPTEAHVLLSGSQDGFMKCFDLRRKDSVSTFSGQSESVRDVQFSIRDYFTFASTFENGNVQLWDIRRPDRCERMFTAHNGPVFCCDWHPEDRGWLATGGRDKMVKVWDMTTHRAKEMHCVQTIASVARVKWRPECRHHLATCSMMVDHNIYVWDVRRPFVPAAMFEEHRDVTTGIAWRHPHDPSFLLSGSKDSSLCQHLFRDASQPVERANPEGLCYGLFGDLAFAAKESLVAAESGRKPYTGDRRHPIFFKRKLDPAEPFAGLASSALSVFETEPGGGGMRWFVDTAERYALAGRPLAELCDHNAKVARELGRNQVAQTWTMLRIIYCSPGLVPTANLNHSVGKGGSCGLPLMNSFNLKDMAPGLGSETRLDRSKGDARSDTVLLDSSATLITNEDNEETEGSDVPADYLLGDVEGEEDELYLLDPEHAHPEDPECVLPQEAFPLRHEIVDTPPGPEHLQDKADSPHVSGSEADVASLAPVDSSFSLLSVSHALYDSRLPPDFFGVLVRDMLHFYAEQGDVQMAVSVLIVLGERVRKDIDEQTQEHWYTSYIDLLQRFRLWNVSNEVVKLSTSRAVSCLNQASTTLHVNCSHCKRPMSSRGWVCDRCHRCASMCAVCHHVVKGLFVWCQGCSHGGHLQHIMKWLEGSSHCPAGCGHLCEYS
Chain of Sestrin2-GATOR2 complex (Q9NXC5 whole entry partner): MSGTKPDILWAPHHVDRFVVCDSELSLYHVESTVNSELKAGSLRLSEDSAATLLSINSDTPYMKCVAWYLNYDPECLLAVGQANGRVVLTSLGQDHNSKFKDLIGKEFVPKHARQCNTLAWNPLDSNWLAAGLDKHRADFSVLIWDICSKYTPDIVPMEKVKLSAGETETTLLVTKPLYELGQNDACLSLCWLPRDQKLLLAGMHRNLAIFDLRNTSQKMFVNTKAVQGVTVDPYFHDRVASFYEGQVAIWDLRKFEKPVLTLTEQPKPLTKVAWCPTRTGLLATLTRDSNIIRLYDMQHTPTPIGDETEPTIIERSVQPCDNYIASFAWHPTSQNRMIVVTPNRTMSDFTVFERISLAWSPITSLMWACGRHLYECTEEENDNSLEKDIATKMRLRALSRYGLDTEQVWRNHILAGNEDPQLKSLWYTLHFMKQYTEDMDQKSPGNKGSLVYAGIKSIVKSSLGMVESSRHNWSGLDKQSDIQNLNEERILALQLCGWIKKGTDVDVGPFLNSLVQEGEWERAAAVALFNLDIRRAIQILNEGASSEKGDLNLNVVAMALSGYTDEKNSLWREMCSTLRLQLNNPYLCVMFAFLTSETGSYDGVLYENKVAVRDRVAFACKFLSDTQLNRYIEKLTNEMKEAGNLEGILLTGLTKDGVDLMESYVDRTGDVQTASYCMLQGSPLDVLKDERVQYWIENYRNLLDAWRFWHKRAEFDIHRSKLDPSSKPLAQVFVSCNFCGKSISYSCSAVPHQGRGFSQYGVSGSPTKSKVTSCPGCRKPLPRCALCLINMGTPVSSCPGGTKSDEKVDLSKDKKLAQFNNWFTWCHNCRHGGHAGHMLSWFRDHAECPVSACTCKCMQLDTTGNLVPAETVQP
Chain of Sestrin2-GATOR2 complex (Q6PJI9 whole entry partner): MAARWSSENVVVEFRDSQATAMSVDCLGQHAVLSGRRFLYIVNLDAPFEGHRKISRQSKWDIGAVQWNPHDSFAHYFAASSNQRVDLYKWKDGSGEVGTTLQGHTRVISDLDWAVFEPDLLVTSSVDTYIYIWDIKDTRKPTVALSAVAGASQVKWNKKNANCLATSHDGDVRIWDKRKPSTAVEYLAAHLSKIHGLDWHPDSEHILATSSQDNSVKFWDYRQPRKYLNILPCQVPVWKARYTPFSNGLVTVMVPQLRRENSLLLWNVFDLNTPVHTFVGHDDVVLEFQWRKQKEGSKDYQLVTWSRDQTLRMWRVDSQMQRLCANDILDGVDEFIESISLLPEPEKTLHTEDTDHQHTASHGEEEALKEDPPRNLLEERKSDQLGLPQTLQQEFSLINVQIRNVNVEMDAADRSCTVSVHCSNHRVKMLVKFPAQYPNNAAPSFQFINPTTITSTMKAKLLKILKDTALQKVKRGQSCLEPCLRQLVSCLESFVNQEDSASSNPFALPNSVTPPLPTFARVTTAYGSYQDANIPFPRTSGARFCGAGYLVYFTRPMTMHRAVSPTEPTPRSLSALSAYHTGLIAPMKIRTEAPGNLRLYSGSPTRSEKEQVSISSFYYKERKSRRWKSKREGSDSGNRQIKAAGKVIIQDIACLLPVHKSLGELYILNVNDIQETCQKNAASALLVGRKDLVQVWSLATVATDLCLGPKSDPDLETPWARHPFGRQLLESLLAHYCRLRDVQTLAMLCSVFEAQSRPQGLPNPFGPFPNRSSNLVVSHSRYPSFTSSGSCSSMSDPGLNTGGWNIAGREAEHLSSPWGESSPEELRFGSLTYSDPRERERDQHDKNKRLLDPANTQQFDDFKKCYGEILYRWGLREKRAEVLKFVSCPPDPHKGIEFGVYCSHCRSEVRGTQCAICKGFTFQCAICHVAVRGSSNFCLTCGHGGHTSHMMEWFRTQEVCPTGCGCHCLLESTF
Chain of Sestrin2-GATOR2 complex (Q96EE3 whole entry partner): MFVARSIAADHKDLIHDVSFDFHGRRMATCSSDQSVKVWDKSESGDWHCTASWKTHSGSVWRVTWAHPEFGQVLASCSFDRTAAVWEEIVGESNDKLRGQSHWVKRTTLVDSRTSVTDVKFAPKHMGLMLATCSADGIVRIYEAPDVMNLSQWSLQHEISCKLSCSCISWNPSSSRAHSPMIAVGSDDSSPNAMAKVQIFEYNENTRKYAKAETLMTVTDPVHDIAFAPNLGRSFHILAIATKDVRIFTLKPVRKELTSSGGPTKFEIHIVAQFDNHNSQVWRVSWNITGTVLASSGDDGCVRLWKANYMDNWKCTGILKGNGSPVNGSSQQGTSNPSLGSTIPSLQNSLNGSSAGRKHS
Chain of Sestrin2-GATOR2 complex (P55735 2-322 partner): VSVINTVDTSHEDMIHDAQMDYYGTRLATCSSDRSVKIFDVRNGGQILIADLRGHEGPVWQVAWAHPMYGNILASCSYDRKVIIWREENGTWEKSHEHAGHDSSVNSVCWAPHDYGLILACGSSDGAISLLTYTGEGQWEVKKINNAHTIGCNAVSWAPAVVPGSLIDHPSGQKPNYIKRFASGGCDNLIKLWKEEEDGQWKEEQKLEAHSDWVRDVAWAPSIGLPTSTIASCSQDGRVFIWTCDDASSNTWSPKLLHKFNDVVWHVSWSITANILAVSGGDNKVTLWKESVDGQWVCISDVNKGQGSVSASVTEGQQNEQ

On to `CC(C)C[C@H](N)C(=O)O` [leucine], for which the “[3H]Leucine binding, FLAG immunoprecipitate on beads” value is “Sestrin2 mutant (S190W) that still binds leucine” on Sestrin2 (FLAG-Sestrin2) [1] and “Sestrin1 bound leucine to a similar extent as did Sestrin2” on Sestrin1 (two isoforms). In addition, the no appreciable binding result at Sestrin2 (FLAG-Sestrin2) [2] is “L261A and E451A, which do not bind leucine to an appreciable degree”; at Sestrin2 (FLAG-Sestrin2) [4] it was “L261A and E451A, which do not bind leucine to an appreciable degree”. Further, the “melting temperature shift (dTm)” value in experiment [3] was “up to 8.5 °C”. At Sestrin3, the very weak binding result is on record as “Sestrin3 bound very weakly”.

Consider `CC(C)[C@H](N)C(=O)O` [valine], for which the “disruption of immunopurified Sestrin2-GATOR2 complex, immunoblot” value on Sestrin2-GATOR2 complex was “methionine, isoleucine, and valine– had any effect on the Sestrin2-GATOR2 interaction in vitro”.
